Earlier results as cited in patent US20240366505A1, “Liquid Resin Extended-Release Oral Naltrexone Formulation for Treating Autism-Related Disorders” (AARDVARK THERAPEUTICS, INC., priority 2022, published 2024).
Read-outs that look alike come from different tables or passages of the source.

Columns and labels:
[1] = single 50 mg REVIA tablet
[2] = 6-β-naltrexol; 50 mg REVIA tablets once daily for 7 days
[3] = in vivo
[4] = system: ASD children; conditions: 20 mg immediate release per day for 4 weeks
[5] = system: children with ASD; conditions: 1.0 mg/kg single daily immediate release oral dose, 12 or 14 days
[6] = system: autistic behavior; conditions: 0.5, 1.0 and 2.0 mg/kg immediate release oral
[7] = 50 mg once daily

Row | SMILES | AUC(0-inf) ([1]; 6-β-naltrexol, mean (CV%)) | Cmax ([1]; 6-β-naltrexol, mean (CV%)) | Tmax ([1]; 6-β-naltrexol, mean (CV%)) | AUC(0-τ) [2] | Cmax [2] | Tmax ([1]; naltrexone, Mean (CV %)) | incidence of difficulty sleeping, anxiety, nervousness, abdominal pain/cramps, nausea and/or vomiting, low energy, joint/muscle pain, headache [3] | incidence of loss of appetite, diarrhea, constipation, thirstiness, increased energy, feeling down, irritability, dizziness, skin rash, delayed ejaculation, erectile dysfunction, chills [3] | accumulation (after 100 mg daily doses) | excretion of parent drug and metabolites by the kidney (human, in vivo) | dose absorbed from the gastrointestinal tract (human, in vivo, po) | urinary excretion of unchanged naltrexone (immediate release formulations) | dose proportionality of AUC and Cmax (over the range of 50-200 mg) | CGI ratings of the teachers [4] | behavior ratings completed by the teachers (Aberrant Behavior Checklist (ABC) scores) [4] | changes in parent measures (CGI, Conners IHF, SE-Restlessness) and Teacher CGI [5] | effect on autistic behavior and gaze aversion [6] | rate of early discontinuation of treatment versus placebo [7] | adverse effects versus placebo ([7]; weeks 1, 5 and 8)
1 | Oc1ccc2c3c1O[C@H]1[C@H](O)CC[C@@]4(O)[C@@H](C2)N(CC2CC2)CC[C@]314 [6-β-naltrexol] | 717.3 ng·h/mL | 85.6 ng/mL | 1.05 h | 788 ± 134.8 ng·h/mL | 96.1 ± 21.05 ng/mL | – | – | – | – | – | – | – | – | – | – | – | – | – | –
2 | O=C1CC[C@@]2(O)[C@H]3Cc4ccc(O)c5c4[C@@]2(CCN3CC2CC2)[C@H]1O5 [naltrexone, 17-(cyclopropylmethyl)-4,5α-epoxy-3,14-dihydroxy-morphinan-6-one] | – | – | – | – | – | 1.07 h | Greater than 10% | Less than 10% | do not accumulate | 53-79 % of the dose | approximately 96% | less than 2 % of an oral dose | dose-proportional | Significant difference | significant changes | achieved statistical significance | reverse autistic behavior and gaze aversion | greater rate | significantly more adverse effects
